From patent US9801387B2, “Compositions comprising a biological control agent and an insecticide” (Bayer CropScience AG, priority 2012, dated 2017) come the findings set out here.

Holding throughout (assay type): in vivo
One assay relates to Tetranychus urticae. The experiment in a line: Tetranychus urticae - spray test, OP-resistant. The following applies: mortality, French beans sprayed. How it is done: (§1) For all examples the efficiencies of the compositions comprising at least one BCA and at least one specific insecticide has been determined by the “Colby-formula”: The expected efficacy of a given combination of two compounds is calculated as follows (see Colby, S. R., “Calculating Synergistic and antagonistic Responses of Herbicide Combinations”, Weeds 15, pp. 20-22, 1967): • If • X is the efficacy expressed in % mortality of the untreated control for test compound A at a concentration of m ppm respectively m g/ha, • Y is the efficacy expressed in % mortality of the untreated control for test compound B at a concentration of n ppm respectively n g/ha, • E is the efficacy expressed in % mortality of the untreated control using the mixture of A and B at m and n ppm respectively m and n g/ha, then is E=X+Y−(X×Y/100)
(§2) If the observed insecticidal efficacy of the combination is higher than the one calculated as “E”, then the combination of the two compounds is more than additive, i.e., there is a synergistic effect.
Tetranychus urticase—Spray Test, OP-resistant […]
(§3) After the specified period of time, mortality in % is determined. […] The mortality values determined thus are recalculated using the Colby-formula (see above).

A further assay deals with Myzus persicae. Kind of assay: Myzus persicae - spray test (MYZUPE). The following applies: mortality. How it is done:
as §1, §2
Myzus persicae—Spray Test (MYZUPE) […]
as §3

The next assay has as its system Phaedon cochleariae. The experiment in a line: Phaedon cochleariae - spray test. As to conditions: mortality of larvae, 100 g ai/ha. How it is done: as §1, §2
Phaedan Cochleariae—Spray Test […]
as §3

In the case of `O=C1C=C(N(Cc2ccc(Cl)nc2)CC(F)F)CO1` [Flupyradifurone (I262), Flupyradifurone, reference compound], in the assay with Tetranychus urticae (6 d, 20 g ai/ha), the “Efficacy in % after 6^d” value is listed as 0%. In addition, the “Efficacy in % after 1^d” value in the assay with Myzus persicae (Chinese cabbage leaf-disks sprayed, 1 d, 4 g/ha) is given as 0%.

Consider `Cc1cc(F)c(-n2nc(C(F)(F)F)nc2N)cc1[S+]([O-])CC(F)(F)F` (centres unmarked) [I277, 1-{2-fluoro-4-methyl-5-[(2,2,2-trifluorethyl)sulfinyl]phenyl}-3-(trifluoromethyl)-1H-1,2,4-triazol-5-amine], for which, in the assay on Tetranychus urticae (2 d, 100 g ai/ha), the “Efficacy in % after 2^d” value came to 0%. The “Efficacy in % after 6^d” value in the assay with Phaedon cochleariae came out at 0%; in the assay on Myzus persicae (6 d, 100 g/ha), 0%.
